The source of these data is US10077246B2, “Tricyclic prodrugs” (Glactone Pharma Development AB, priority 2014, dated 2018).

By AUC(0-inf) is commonly meant total exposure, with the tail of the curve extrapolated. High values mean high exposure, low ones low exposure. For orientation: half-life means how long it takes for the measured level to halve. A low value points to rapid decline.

A short description of data set [1]: Pharmacokinetic (PK) study in mice, oral dosing, galiellalactone quantified in plasma. In kind it is in vivo. To be noted: for AUC 0-t / AUC 0-∞ / plasma exposure of galiellalactone compared to oral administration of galiellalactone itself (in words): oral 10 mg/kg; for AUC 0-t / AUC 0-∞: galiellalactone (GL) in plasma; for AUC 0-t: 0 minutes to last quantifiable data point; for AUC 0-∞: extrapolated to infinity. The procedure: The usefulness of the compounds, as defined in the embodiments herein, as prodrugs to enhance the plasma exposure of tricyclic compounds that may be used treating, revoking, mitigating, alleviating and/or preventing different forms of cancer, were evaluated in an in vivo pharmacokinetic (PK) study in mice.
Doses of the test items were prepared at a drug concentration of 0.5 mg/mL in 5% DMSO in 50 mM citrate buffer (citric acid/sodium citrate), pH 4.0.
Oral doses were administered in a volume of 20 mL/kg (10 mg/kg) to groups of 24 mice and blood samples taken, under terminal barbiturate anaesthesia, at eight time-points out to 8 hours post-dose (n=3 mice per time-point).
Blood samples were transferred to tubes containing EDTA as anticoagulant and, as soon as practicable after collection, samples were centrifuged to yield plasma which was immediately frozen awaiting analysis. Following blood collection, brains were removed from all animals for possible future analysis and immediately frozen by immersion in liquid nitrogen. All samples were analyzed using LC-MS/MS.
Plasma proteins were precipitated and compounds extracted by the addition of three volumes of acetonitrile containing analytical internal standard (reserpine). Samples were centrifuged for 30 minutes at 3452 g in a Sorvall bench centrifuge and the supernatant fractions removed for MS analysis.
Quantification of the active compound e.g. galiellalactone, was by extrapolation from calibration lines prepared in control mouse plasma and analyzed concurrently with experimental samples and Quality Control (QC) samples prepared in control mouse plasma. If the compounds were instable in mouse plasma, calibration lines were constructed in water for qualitative MS comparison with any signal seen in plasma samples.
Pharmacokinetic parameters of the test items were determined using the mean data from the n=3 mice at each time-point. Non-compartmental analysis was performed using the software package PK Solutions 2.0 from Summit Research Services. AUC values were calculated by the trapezoidal method.
AUC 0-t: Area under the plasma drug concentration/time curve from 0 minutes to last quantifiable data point
AUC 0-∞: Area under the curve from 0 minutes extrapolated to infinity

The nature of data set [2]: Chemical stability in phosphate buffered saline. In kind it is physicochemical. The conditions noted are these: for chemical stability in 0.1 M PBS (in words): 0.1 M PBS (pH 7.4); for half-life at 10 μM: 0.1 M phosphate buffered saline, 0.1 M PBS pH 7.4, 10 μM, room temperature. The protocol: The chemical stability of test compounds was determined in 96-well plate format. Compounds in DMSO stock solutions were diluted (n=2) in the required matrix (0.1 M phosphate buffered saline) to a concentration of 10 μM (2% DMSO final) and mixed at room temperature on an orbital shaker, with aliquots removed at 2 and 4 hours for testing. DMSO, containing an analytical internal standard, was added to the aliquots, vortex-mixed and analysed immediately by LC-MS/MS. Equivalent T=0 samples were also included, with sample preparation staggered to allow sequential injections of timed aliquots and the T=0 samples.
The amount of compound remaining (expressed as %) was determined from the MS response in each sample relative to that in the T=0 samples (normalized for internal standard).
Ln plots of the % remaining were used to determine the half-life of compound disappearance from the relationship:
t1/2 (min)=−0.693/λ, where λ is the slope of the Ln concentration vs time curve.

In another data set the test system is PC-3. The experiment in a line: WST-1 cell proliferation assay, PC-3. In kind it is cell-based. The conditions noted are these: PC3 (pSTAT3 −), 72 hours/10 μM, percent of untreated control cells. The procedure:
(§1) The functional activity of example 15 in comparison to galiellalactone was evaluated using WST-1 proliferation assay (J. Biol. Chem. 2014, 289:15969-15978) on DU145, PC-3, LNCaP or IL-6 stimulated LNCaP. The cells were cultured in 96-well plates (2000 cells/well in 200 μl of medium) and allowed to set for 24 h. The cells were treated with 10 μM of 4α-fluoro-galiellalactone or galiellalactone for 72 h. Samples were made in triplicate. 20 μl WST-1 solution (Roche Applied Science) was added per well and incubated at 37° C. for 4 h. The absorbance of each well was measured using a scanning multi-well spectrophotometer, ELISA reader at a wavelength of 450 nm and reference wavelength of 690 nm. The results presented in Table 3 below are presented as percent of untreated control cells.
For orientation: Tetrazolium assays rely on reduction of a dye to a coloured formazan, in cell work by metabolically active cells.

A further data set concerns DU145. The experiment in a line: WST-1 cell proliferation assay, DU145. To be noted: DU145 (pSTAT3 +), 72 hours/10 μM, percent of untreated control cells. In kind it is cell-based. The protocol:
as §1

A further data set relates to IL-6 stimulated LNCaP. Put plainly: WST-1 cell proliferation assay, IL-6 stimulated LNCaP. Type of data set: cell-based. To be noted: LNCaP-IL6 (pSTAT3 +), 72 hours/10 μM, percent of untreated control cells. The protocol: as §1
Data set [3] deals with STAT3 expressing DU145 prostate cancer cells. The conditions noted are these: Prostate 68:269-280 (2008); cited from earlier work.
The test system of a further data set is IL-6/STAT3 signaling. The conditions noted are these: cited from earlier work.
The next data set concerns LNCaP. Put plainly: WST-1 cell proliferation assay, LNCaP. Type of data set: cell-based. The conditions noted are these: LNCaP (pSTAT3 −), 72 hours/10 μM, percent of untreated control cells. The procedure: as §1
For another data set, the system named is STAT3. Put plainly: WST-1 proliferation, pSTAT3 negative versus pSTAT3 positive cell lines. In kind it is cell-based. The conditions noted are these: 10 μM; pSTAT3 negative PC3, LNCaP versus pSTAT3 positive cells. The procedure: as §1
On the other hand, the pSTAT3 positive cells are equally sensitive to 4α-fluoro-galiellalactone and galiellalactone.

With `COC(=O)[C@H](CS[C@H]1C2C(=O)O[C@@H]3CC[C@H](C[C@@H]1C)[C@]23O)NC(=O)[C@@H](N)C(C)C` (stereo partly drawn) [Example 14, 3β-(N-(L-valine)-L-cysteinemethyl ester)-2aβ,3-dihydrogaliellalactone], in [1], the “AUC 0-t” value is listed as 97 μg GL/mL•min and the “AUC 0-∞” value is on record as 101 μg GL/mL•min. The “chemical stability in 0.1 M PBS (in words)” value (from here on “chemical stability”) in data set [2] is “chemically stable”.

In the case of `COC(=O)[C@H](CCS[C@H]1C2C(=O)O[C@@H]3CC[C@H](C[C@@H]1C)[C@]23O)NC(C)=O` (stereo partly drawn) [Example 12, 3β-(N-acetyl-L-homocysteinemethyl ester)-2aβ,3-dihydrogaliellalactone], in data set [1], the “AUC 0-t” value is recorded as 150 μg GL/mL•min and the “AUC 0-∞” value is listed as 155 μg GL/mL•min.

As to `C[C@H]1C[C@H]2CC[C@H]3OC(=O)C([C@@H]1N1CCCC1)[C@@]23O.Cl` (stereo partly drawn) [drawing 42, 3β-(N-pyrrolidine)-2aβ,3-dihydrogaliellalactone, reference compound], in data set [1], the “plasma exposure of galiellalactone compared to oral administration of galiellalactone itself (in words)” value is recorded as “do not increase the AUC”, the “AUC 0-t” value is 2.2 μg GL/mL•min and the “AUC 0-∞” value was 2.5 μg GL/mL•min. In data set [2], the “chemical stability” value is on record as “very unstable”.

As to `C[C@@H]1C=C2C(=O)O[C@@H]3CC[C@H](C1)[C@]23O` [Galiellalactone, (−)-Galiellalactone, reference compound], the “% Remaining Proliferation” value came out at 31% in the data set on PC-3, 18% in the data set on DU145, 17% in the data set on IL-6 stimulated LNCaP and 77% in the data set on LNCaP. In addition, the area under the curve AUC(0-inf) in data set [1] (mouse, oral administration 10 mg/kg, plasma galiellalactone) was 95 ng·h/mL. Besides, the “AUC 0-t” value in data set [1] is 5 μg GL/mL•min. Further, the “AUC 0-∞” value in data set [1] is given as 6 μg GL/mL•min. The “proliferation of DU145 prostate cancer cells (in words)” value in [3] was “inhibits the proliferation”. Moreover, in the data set on IL-6/STAT3 signaling, the “inhibition of IL-6/STAT3 signaling” value is listed as “submicromolar”.

As for `COC(=O)[C@H](CS[C@H]1C2C(=O)O[C@@H]3CC[C@H](C[C@@H]1C)[C@]23O)NC(=O)c1ccccc1F` (stereo partly drawn) [Example 13, 3β-(N-(2-fluorobenzoyl)-L-cysteinemethyl ester)-2aβ,3-dihydrogaliellalactone], in [1], the “AUC 0-t” value was 7.8 μg GL/mL•min and the “AUC 0-∞” value is listed as 11 μg GL/mL•min.

On to `CCOC(=O)[C@H](CS[C@H]1C2C(=O)O[C@@H]3CC[C@H](C[C@@H]1C)[C@]23O)NC(C)=O` (stereo partly drawn) [Example 4, 3β-(N-acetyl L-cysteineethyl ester)-2aβ,3-dihydrogaliellalactone], for which, in [1], the “AUC 0-t” value came to 20 μg GL/mL•min and the “AUC 0-∞” value is reported as 22 μg GL/mL•min.

Consider `CC(=O)N[C@@H](CS[C@H]1C2C(=O)O[C@@H]3CC[C@H](C[C@@H]1C)[C@]23O)C(N)=O` (stereo partly drawn) [Example 7, 3β-(N-acetyl L-cysteine amide)-2aβ,3-dihydrogaliellalactone], for which, in data set [2], the half-life at 10 μM was over 2.5 h.

Take `COC(=O)[C@H](CS[C@H]1C2C(=O)O[C@@H]3CC[C@H](C[C@@H]1C)[C@]23O)NC(=O)OC(C)(C)C` (stereo partly drawn) [Example 6, 3β-(N-(tert-butylcarbonate)-L-cysteinemethyl ester)-2aβ,3-dihydrogaliellalactone]: in [1], the “AUC 0-t” value is given as 11 μg GL/mL•min and the “AUC 0-∞” value was 17 μg GL/mL•min. This compound had a half-life at 10 μM in data set [2] of over 2.5 h.

On to `COC(=O)[C@H](CS[C@H]1C2C(=O)O[C@@H]3CC[C@H](C[C@@H]1C)[C@]23O)NC(C)=O` (stereo partly drawn) [Example 3, 3β-(N-acetyl L-cysteinemethyl ester)-2aβ,3-dihydrogaliellalactone], for which, in data set [1], the “plasma exposure of galiellalactone compared to oral administration of galiellalactone itself (in words)” value was “significantly improve”, the “AUC 0-t” value is on record as 117 μg GL/mL•min and the “AUC 0-∞” value was 120 μg GL/mL•min. Moreover, in data set [2], the “chemical stability” value is recorded as “chemically stable” and the half-life at 10 μM was over 2.5 h.

Turning to `C[C@H]1C[C@H]2CC[C@H]3OC(=O)C([C@@H]1SCC(N)C(=O)O)[C@@]23O` (stereo partly drawn) [reference compound], in [2], the half-life at 10 μM came to 0.233 h.

On to `CCCCS[C@H]1C2C(=O)O[C@@H]3CC[C@H](C[C@@H]1C)[C@]23O` (stereo partly drawn) [Example 1, 3β-(Butyllthio)-2aβ,3-dihydrogaliellalactone], for which, in data set [1], the “AUC 0-t” value turned out to be 85 μg GL/mL•min and the “AUC 0-∞” value is given as 102 μg GL/mL•min.

Consider `C[C@H]1C[C@H]2CC[C@H]3OC(=O)C([C@@H]1Sc1ccccc1)[C@@]23O` (stereo partly drawn) [Example 2, 3β-(Phenylthio)-2aβ,3-dihydrogaliellalactone], for which, in [1], the “AUC 0-t” value is reported as 36 μg GL/mL•min and the “AUC 0-∞” value was 41 μg GL/mL•min.

On to `C[C@H]1C[C@H]2CC[C@H]3OC(=O)C([C@@H]1SCCS(=O)(=O)[O-])[C@@]23O.[Na+]` (stereo partly drawn) [Example 8, 3β-(ethyl sulphonate)-2aβ,3-dihydrogaliellalactone sodium], for which the half-life at 10 μM in data set [2] was over 2.5 h.

Turning to `C[C@H]1C[C@H]2CC[C@H]3OC(=O)C([C@@H]1SCC(NC(=O)CCC(N)C(=O)O)C(=O)NCC(=O)O)[C@@]23O` (stereo partly drawn) [Example 9, 3β-(glutathione)-2aβ,3-dihydrogaliellalactone], the half-life at 10 μM in data set [2] is over 2.5 h.

Consider `C[C@@]1(F)C=C2C(=O)O[C@@H]3CC[C@H](C1)[C@]23O` [Example 15, 4α-fluoro-galiellalactone], for which the “% Remaining Proliferation” value in the data set on PC-3 is given as 68%; in the data set with DU145 it was 16%; with IL-6 stimulated LNCaP, 20%; in the data set with LNCaP it was 105%. The “selectivity for STAT3 compared with galiellalactone (in words)” value in the data set with STAT3 is “significantly more selective”.

As to `COC(=O)[C@H](CS[C@H]1C2C(=O)O[C@@H]3CC[C@H](C[C@@H]1C)[C@]23O)NC(=O)C(C)C` (stereo partly drawn) [Example 5], in data set [1], the “AUC 0-t” value came out at 15 μg GL/mL•min and the “AUC 0-∞” value is 21 μg GL/mL•min. In addition, in [2], the half-life at 10 μM was over 2.3 h.

`COC(=O)C(N)CS[C@H]1C2C(=O)O[C@@H]3CC[C@H](C[C@@H]1C)[C@]23O` (stereo partly drawn) [reference compound]: in [2], the half-life at 10 μM is 0.367 h.

In data set [2], `C[C@H]1C[C@H]2CC[C@H]3OC(=O)C([C@@H]1N1CCCC1)[C@@]23O.Cl` (stereo partly drawn) [drawing 45, reference compound] came in with a half-life at 10 μM of 0.3 h.
